1 compound from patent US11713447B2, “Production of megakaryoctye compositions and therapies for treatment of thrombocytopenia” (Icahn School of Medicine at Mount Sinai, priority 2016, dated 2023) can be followed below.

Each structure is given as a SMILES string.

Test [1] deals with Cord blood (CB) CD34+ cells. The experiment in a line: TPO-mediated MK differentiation after VPA expansion of CB CD34+ cells. Type of test: cell-based. How it is done: For this, 50,000 cryopreserved CB CD34+ cells were plated in serum-free (SF) media supplemented with stem cell factor (SCF), interleukin-3 (IL-3), Fms-like tyrosine kinase 3 (FLT-3), and TPO and allowed to expand with or without VPA (testing vs. control), as described in Example 1 above. After 7 days, instead of collecting, the cells were washed to remove VPA and cytokines, and re-plated in SF medium supplemented only with TPO. Approximately 50% more CD41+ MKs were detected in the VPA-expanded cultures than in cultures expanded with only cytokines (FIG. 3A). This corresponded to a final yield of ˜40 MKs generated from 1 CD34+ cell plated in the presence of VPA compared to […] CD41+ MKs generated by 1 CD34+ cell plated in the absence of VPA. q-PCR analyses confirmed upregulation of MK-specific genes (GATA1, PF4, and NFE2) in the cultures exposed to VPA before MK differentiation (FIG. 3B).

In test [2] the test system is Cord blood (CB) CD34+ cells. The experiment in a line: Ex vivo expansion of CB CD34+ cells in serum-free culture with valproic acid. In kind it is cell-based. How it is done: Cord blood (CB) CD34+ cells were obtained and separated into a testing group and a control group. The groups were subjected to the following cell culture protocol:
The CB CD34+ cells were primed with a cytokine cocktail and plated in serum-free (SF) culture. The cytokine cocktail included stem cell factor (SCF) at an amount of 150 ng/mL, interleukin-3 (IL-3) at an amount of 50 ng/mL, Fms-like tyrosine kinase 3 (FLT-3) at an amount of 100 ng/mL, and thrombopoietin (TPO) at an amount of 100 ng/mL.
1 mM valproic acid (VPA) was added to the SF culture (testing group only). No VPA was added to the control group.
The cells were allowed to expand in the SF culture and collected at Day 7. Total CD34+ cell expansion was around 200-fold.

With `CCCC(CCC)C(=O)O` [VPA, valproic acid], in test [1] (7 days expansion with VPA, then SF medium with TPO only), the “more CD41+ MKs in VPA-expanded cultures than in cultures expanded with only cytokines” value is “Approximately 50%”. Also, the “q-PCR expression of MK-specific genes (GATA1, PF4, and NFE2)” value in test [1] (cultures exposed to VPA before MK differentiation) is reported as “upregulation”. The “final yield of MKs generated from 1 CD34+ cell plated” value in test [1] (plated in the presence of VPA) is reported as 40 MKs generated from 1 CD34+ cell. Moreover, in test [2] (1 mM VPA added day 1, SF culture with SCF, IL-3, FLT-3, TPO), the “number of CD34+ cells in VPA-treated cultures relative to cells expanded in the absence of VPA” value is greater than 200 fold. Further, the “Total CD34+ cell expansion” value in test [2] (1 mM VPA, SF culture, collected at Day 7) was “around 200 fold”. Moreover, in test [2] (VPA-treated SF culture), the “CD41+ MK cells in expanded HSCs” value is 8.9±2%, the “glycophorin (GPA)+ erythroid cells in expanded HSCs” value was 17±5.4% and the “primitive CD34+/CD90+ cells in expanded HSCs” value is 74.2±9.8%.
